Assay: Quantitative metabolite radioprofiling in pooled plasma, urine and stool (UHPLC-FC / HRMS)
Assay type: in vivo, human
Settings: pooled 0–168 h stool
Description: The plasma sample (15 mL) after pooled was added 15 mL methanol and 15 mL acetonitrile and centrifugation (3,500 rpm, 10 min, 4°C). Extract the centrifuged solid with 7.5 mL water and 22.5 mL methanol acetonitrile (50:50, v: v). The first two extracted supernatants were combined and concentrated. The concentration of the substance is at 200 μL Acetonitrile water (20:80, v: v) was dissolved again and centrifuged again (3,600 rpm, 10 min, 4°C). Part of the supernatant was injected into the UHPLC-FC (Fraction collector) system (Thermo). The eluent from the UHPLC was collected into the Deepwell LumaPlate 96 (PerkinElmer) at the rate of 10 s per well within minutes. The total collection time is 35 min. The plates were dried by Integrated SpeedVac (Thermo), and the radiation value of each well were detected by a microplate reader (Sense Beta Hidex, Finland). Data were reconstructed to radio-chromatogram by Laura software (Lablogic, United Kingdom) to give the radio profiling of plasma.
The combined samples were centrifuged, concentrated by N2 and dissolved in a 200 μL mixture of 40 mL acetonitrile and 160 mL-water, and 120 μL was injected into the UHPLC-FC system (Thermo). Other operation steps are the same as those of plasma.
Add 6 mL methanol acetonitrile (50:50, v: v) to the combined fecal homogenate (2 g) sample. The mixture was then whirled (1 min) and centrifuged6 (3,500 rpm, 10 min, 4°C). […]

abundance in stool (in words): minor metabolites
Compound: CC(=O)c1c(C)c2cnc(Nc3ccc(C(CCN)CCO)cn3)nc2n(C2CCCC2)c1=O (stereo not shown) [M464-2]

Source: publication PMC10102643, “A mass balance study of [^14C]SHR6390 (dalpiciclib), a selective and potent CDK4/6 inhibitor in humans” (Frontiers in Pharmacology, 2023)
